Test results reported in US20230000996A1, “RAPAFUCIN DERIVATIVE COMPOUNDS AND METHODS OF USE THEREOF” (The Johns Hopkins University, priority 2019, published 2023).

Legend:
Assay type in all cases: cell-based
A549 = experiment: Cell proliferation assay (Prolif.), IC50 scored relative to DMSO control; settings: A549 cells; for Prolif, A549: IC50 class relative to DMSO control; for Rel. Prolif., A549: scored low/medium/high
Protocol: Cell Proliferation Assay (Prolif.) Guo et al. (2018) Nat. Chem. 11:254-63. Specific cell lines are indicated in each assay and cultured in complete growth media. Activity is scored according to the IC50 values relative to DMSO control. “Low” indicates an IC50 greater than 600 nM, “Medium” indicates an IC50 between 300 nM and 600 nM “High” indicates an IC50 less than 300 nM. “Rel.Uptake” refers to uptake activity characterization relative to a single concentration assay. “Low” indicates a response greater than 0.6 times the activity relative to DMSO, “Medium” indicates a response between 0.6 and 0.3 times the activity relative to DMSO, “High” indicates a response less than 0.3 times the activity relative to DMSO.

NCI-H929 = experiment: Cell proliferation, single concentration assay (Rel. Prolif.), response relative to DMSO; settings: NCI-H929 cells, activity relative to DMSO
[1] = Nucleoside uptake, single concentration assay (Rel.Uptake); cell line indicated in each table; settings: 293T cells, response relative to DMSO
Protocol: Nucleoside Uptake Assay (uptake). Nuceloside uptake assays were performed with using 3H-Thymidine as described in Guo et al. (2018) Nat. Chem. 11:254-63. Specific cell lines are indicated in each assay and cultured in complete growth media. Activity is scored according to the IC50 values relative to DMSO control. “Low” indicates an IC50 greater than 600 nM, “Medium” indicates an IC50 between 300 nM and 600 nM “High” indicates an IC50 less than 300 nM. “Rel.Uptake” refers to uptake activity characterization relative to a single concentration assay. “Low” indicates a response greater than 0.6 times the activity relative to DMSO, “Medium” indicates a response between 0.6 and 0.3 times the activity relative to DMSO, “High” indicates a response less than 0.3 times the activity relative to DMSO.

[2] = proliferation response relative to DMSO control
[3] = nucleoside uptake, single concentration assay

## CCCC[C@H]1C(=O)N[C@@H](Cc2ccc3ccccc3c2)C(=O)N(C)[C@@H](COC(C)(C)C)C(=O)NCC(=O)N(C)CCC=CC(=O)OCC(C)(C)C(=O)C(=O)N2CCCC[C@H]2C(=O)O[C@H](CCc2cc(OC)c(OC)cc2O)c2cccc(c2)OCC(=O)N1C [Compound 567]
A549
  Prolif, A549: me- dium
A549; [2]
  Rel. Prolif., A549: medium

## COc1ccc(CC[C@H]2OC(=O)[C@@H]3CCCCN3C(=O)C(=O)C(C)(C)COC(=O)C=CCCN(C)C(=O)[C@@H](Cc3ccccc3)NC(=O)CN(C)C(=O)[C@@H](Cc3ccccc3)NC(=O)[C@H](Cc3ccc(OC(=O)N4CCOCC4)cc3)N(C)C(=O)CCC(=O)Nc3cccc2c3)cc1OC [Compound 869]
NCI-H929
  Rel. Prolif., NCI-H929: low

## C=CC(=O)OCC(C)(C)C(=O)C(=O)N1CCCC[C@H]1C(=O)O[C@H](CCc1ccc(OC)c(OC)c1)c1cncc(NC(=O)CCC(=O)OC(C)(C)C)n1 [Compound 13]
A549; proliferation response relative to DMSO, single concentration
  Rel. Prolif., A549: low

## CCCC[C@H]1C(=O)N[C@@H](Cc2ccc3ccccc3c2)C(=O)N(C)[C@@H](COC(C)(C)C)C(=O)NCC(=O)N(C)CCC=CC(=O)OCC(C)(C)C(=O)C(=O)N2CCCC[C@H]2C(=O)O[C@H](CCc2ccc(OC)c(OC)c2F)c2cccc(c2)OCC(=O)N1C [Compound 570]
A549
  Prolif, A549: me- dium
A549; [2]
  Rel. Prolif., A549: medium

## COc1ccc(CC[C@H]2OC(=O)[C@@H]3CCCCN3C(=O)C(=O)C(C)(C)COC(=O)C=CCCN(C)C(=O)[C@@H](Cc3ccccc3)NC(=O)CN(C)C(=O)[C@@H](Cc3ccccc3)NC(=O)[C@H](Cc3ccc(OC(=O)N4CCOCC4)cc3)N(C)C(=O)COc3cccc2c3F)cc1OC [Compound 867]
NCI-H929
  Rel. Prolif., NCI-H929: low

## CCCC[C@H]1C(=O)N[C@@H](Cc2ccc3ccccc3c2)C(=O)N(C)[C@@H](COC(C)(C)C)C(=O)NCC(=O)N(C)CCC=CC(=O)OCC(C)(C)C(=O)C(=O)N2CCCC[C@H]2C(=O)O[C@H](CCc2c(OC)ccc(OC)c2OC)c2cccc(c2)OCC(=O)N1C [Compound 564]
A549; [2]
  Rel. Prolif., A549: low

## CCCC[C@H]1C(=O)N[C@@H](Cc2ccc3ccccc3c2)C(=O)N(C)[C@@H](COC(C)(C)C)C(=O)NCC(=O)N(C)CCC=CC(=O)OCC(C)(C)C(=O)C(=O)N2CCCC[C@H]2C(=O)O[C@H](CCc2ccc(OC)c(OC)c2)c2cc(ccc2F)OCC(=O)N1C [Compound 573]
A549; [2]
  Rel. Prolif., A549: low

## CCCC[C@H]1C(=O)N[C@@H](Cc2ccc3ccccc3c2)C(=O)N(C)[C@@H](COC(C)(C)C)C(=O)NCC(=O)N(C)CCC=CC(=O)OCC(C)(C)C(=O)C(=O)N2CCCC[C@H]2C(=O)O[C@H](CCc2cc(O)c(OC)c(OC)c2)c2cccc(c2)OCC(=O)N1C [Compound 566]
A549
  Prolif, A549: me- dium
A549; [2]
  Rel. Prolif., A549: medium

## CCCC[C@H]1C(=O)N[C@@H](Cc2ccc3ccccc3c2)C(=O)N(C)[C@@H](COC(C)(C)C)C(=O)NCC(=O)N(C)CCC=CC(=O)OCC(C)(C)C(=O)C(=O)N2CCCC[C@H]2C(=O)O[C@H](CCc2ccc(OC)c(OC)c2OC)c2cccc(c2)OCC(=O)N1C [Compound 561]
A549
  Prolif, A549: me- dium
A549; [2]
  Rel. Prolif., A549: medium

## CCCC[C@H]1C(=O)N[C@@H](Cc2ccc3ccccc3c2)C(=O)N(C)[C@@H](COC(C)(C)C)C(=O)NCC(=O)N(C)CCC=CC(=O)OCC(C)(C)C(=O)C(=O)N2CCCC[C@H]2C(=O)O[C@H](CCc2ccc(OC)c(OC)c2)c2cc(F)cc(c2)OCC(=O)N1C [Compound 574]
A549; [2]
  Rel. Prolif., A549: low

## CCCC[C@H]1C(=O)N[C@@H](Cc2ccc3ccccc3c2)C(=O)N(C)[C@@H](COC(C)(C)C)C(=O)NCC(=O)N(C)CCC=CC(=O)OCC(C)(C)C(=O)C(=O)N2CCCC[C@H]2C(=O)O[C@H](CCc2cc(OC)c(OC)cc2F)c2cccc(c2)OCC(=O)N1C [Compound 569]
A549
  Prolif, A549: me- dium
A549; [2]
  Rel. Prolif., A549: medium

## COc1ccc(CC[C@H]2OC(=O)[C@@H]3CCCCN3C(=O)C(=O)C(C)(C)COC(=O)C=CCCN(C)C(=O)[C@@H](Cc3ccccc3)NC(=O)CN(C)C(=O)[C@@H](Cc3ccccc3)NC(=O)[C@H](Cc3ccc(OC(=O)N4CCOCC4)cc3)N(C)C(=O)COc3cc(F)cc2c3)cc1OC [Compound 868]
NCI-H929
  Rel. Prolif., NCI-H929: low

## CCCC[C@H]1C(=O)N[C@@H](Cc2ccc3ccccc3c2)C(=O)N(C)[C@@H](COC(C)(C)C)C(=O)NCC(=O)N(C)CCC=CC(=O)OCC(C)(C)C(=O)C(=O)N2CCCC[C@H]2C(=O)O[C@H](CCc2ccc(OC)c(OC)c2O)c2cccc(c2)OCC(=O)N1C [Compound 565]
A549
  Prolif, A549: me- dium
A549; [2]
  Rel. Prolif., A549: medium

## CCCC[C@H]1C(=O)N[C@@H](Cc2ccc3ccccc3c2)C(=O)N(C)[C@@H](COC(C)(C)C)C(=O)NCC(=O)N(C)CCC=CC(=O)OCC(C)(C)C(=O)C(=O)N2CCCC[C@H]2C(=O)O[C@H](CCc2cc(OC)c(OC)c(OC)c2)c2cccc(c2)OCC(=O)N1C [Compound 560]
A549
  Prolif, A549: me- dium
A549; [2]
  Rel. Prolif., A549: medium

## CCCC[C@H]1C(=O)N[C@@H](Cc2ccc3ccccc3c2)C(=O)N(C)[C@@H](COC(C)(C)C)C(=O)NCC(=O)N(C)CCC=CC(=O)OCC(C)(C)C(=O)C(=O)N2CCCC[C@H]2C(=O)O[C@H](CCc2cc(F)c(OC)c(OC)c2)c2cccc(c2)OCC(=O)N1C [Compound 568]
A549
  Prolif, A549: me- dium
A549; [2]
  Rel. Prolif., A549: medium

## CCCC[C@H]1C(=O)N[C@@H](Cc2ccc3ccccc3c2)C(=O)N(C)[C@@H](COC(C)(C)C)C(=O)NCC(=O)N(C)CCC=CC(=O)OCC(C)(C)C(=O)C(=O)N2CCN(C(=O)OCC3c4ccccc4-c4ccccc43)C[C@H]2C(=O)O[C@H](CCc2ccc(OC)c(OC)c2)c2cccc(c2)OCC(=O)N1C [Compound 571]
A549; [2]
  Rel. Prolif., A549: low

## CCCC[C@H]1C(=O)N[C@@H](Cc2ccc3ccccc3c2)C(=O)N(C)[C@@H](COC(C)(C)C)C(=O)NCC(=O)N(C)CCC=CC(=O)OCC(C)(C)C(=O)C(=O)N2CCCC[C@H]2C(=O)O[C@H](CCc2ccc(OC)c(OC)c2)c2ccc(F)c(c2)OCC(=O)N1C [Compound 576]
A549
  Prolif, A549: me- dium
A549; [2]
  Rel. Prolif., A549: medium

## CCCC[C@H]1C(=O)N[C@@H](Cc2ccc3ccccc3c2)C(=O)N(C)[C@@H](COC(C)(C)C)C(=O)NCC(=O)N(C)CCC=CC(=O)OCC(C)(C)C(=O)C(=O)N2CCCC[C@H]2C(=O)O[C@H](CCc2cc(OC)cc(OC)c2OC)c2cccc(c2)OCC(=O)N1C [Compound 563]
A549; [2]
  Rel. Prolif., A549: low

## COc1ccc(CC[C@H]2OC(=O)[C@@H]3CCCCN3C(=O)C(=O)C(C)(C)COC(=O)C=CCCN(C)C(=O)[C@@H](Cc3ccccc3)NC(=O)CN(C)C(=O)[C@@H](Cc3ccccc3)NC(=O)[C@H](Cc3ccc(O)cc3)N(C)C(=O)COc3cccc2c3)c(F)c1OC [Compound 1571]
[1]; [3]
  Rel. Uptake, 293T: low

## COc1ccc(CC[C@H]2OC(=O)[C@@H]3CCCCN3C(=O)C(=O)C(C)(C)COC(=O)C=CCCN(C)C(=O)[C@@H](c3ccccc3)NC(=O)[C@H](Cc3ccc(OP(C)(C)=O)cc3)NC(=O)[C@H]3CCCN3C(=O)[C@H](CC(C)C)N(C)C(=O)COc3cccc2c3)cc1OC [Compound 1520]
[1]; [3]
  Rel. Uptake, 293T: low

## CCCC[C@H]1C(=O)N[C@@H](Cc2ccc3ccccc3c2)C(=O)N(C)[C@@H](COC(C)(C)C)C(=O)NCC(=O)N(C)CCC=CC(=O)OCC(C)(C)C(=O)C(=O)N2CCCC[C@H]2C(=O)O[C@H](CCc2cc(OC)c(OC)cc2OC)c2cccc(c2)OCC(=O)N1C [Compound 562]
A549
  Prolif, A549: me- dium
A549; [2]
  Rel. Prolif., A549: medium

## CCCC[C@H]1C(=O)N[C@@H](Cc2ccc3ccccc3c2)C(=O)N(C)[C@@H](COC(C)(C)C)C(=O)NCC(=O)N(C)CCC=CC(=O)OCC(C)(C)C(=O)C(=O)N2CCN(C)C[C@H]2C(=O)O[C@H](CCc2ccc(OC)c(OC)c2)c2cccc(c2)OCC(=O)N1C [Compound 572]
A549
  Prolif, A549: me- dium
A549; [2]
  Rel. Prolif., A549: medium

## COc1ccc(CC[C@H]2OC(=O)[C@@H]3CCCCN3C(=O)C(=O)C(C)(C)COC(=O)C=CCCN(C)C(=O)[C@H](CC(C)C)N(C)C(=O)[C@H]3CCCN3C(=O)[C@H](Cc3ccc(CC(=O)OC(C)(C)C)cc3)NC(=O)C(c3ccccc3)NC(=O)CCC(=O)Nc3cccc2c3)cc1OC (stereo partly shown) [Compound 1081]
[1]; single concentration
  Rel. Uptake, 293T: medium
